Target: T1, PI3Kδ (Homo sapiens, UniProt O00329)
T1 construct: purchased Merck Millipore
Experiment: In vitro PI3Kδ inhibition assay (ADP-Glo kinase assay)
Assay type: biochemical
Conditions: mean from two independent experiments, PIP2 substrate 30 μM, 25 °C, 1 h
Protocol: All compounds were tested by a biochemical assay that measured the inhibition of phosphatidylinositol […] production by PI3K isoform. The potency of the tested compounds was assessed by determining the ability of PI3Kδ enzymes (Merck Millipore) to convert ATP to ADP during an enzymatic reaction in the presence of these compounds at decreasing doses. The experiments were carried out using the ADP-Glo kinase assay kit (Promega), according to the manufacturer’s protocol. PIP2 lipid vesicles containing phosphoserine (ThermoFisher Scientific, Waltham, MA, USA) were used as a substrate in the enzymatic reaction. The composition of the reaction mixture and reaction conditions for PI3Kδ were as follows: concentration of PI3Kδ enzyme: 10 ng; reaction temperature and time: 25 °C and 1 h; final concentration of PIP2 substrate: 30 μM; and reaction buffer: 50 mM of HEPES (pH 7.5), 50 mM NaCl, 3 mM MgCl2, and 0.025 mg/mL of BSA.
After the reaction, the ADP-Glo reagent and the kinase detection reagent were sequentially added. The reaction mixture was incubated for 40 min (25 °C, 600 rpm) after the addition of each reagent. Finally, luminescence intensity was measured and the IC50 value was calculated using GraphPad Prism 7 software (GraphPad, Boston, MA, USA). The results were presented as the mean value of IC50 obtained from at least two independent experiments.

T1 sequence (O00329 whole entry): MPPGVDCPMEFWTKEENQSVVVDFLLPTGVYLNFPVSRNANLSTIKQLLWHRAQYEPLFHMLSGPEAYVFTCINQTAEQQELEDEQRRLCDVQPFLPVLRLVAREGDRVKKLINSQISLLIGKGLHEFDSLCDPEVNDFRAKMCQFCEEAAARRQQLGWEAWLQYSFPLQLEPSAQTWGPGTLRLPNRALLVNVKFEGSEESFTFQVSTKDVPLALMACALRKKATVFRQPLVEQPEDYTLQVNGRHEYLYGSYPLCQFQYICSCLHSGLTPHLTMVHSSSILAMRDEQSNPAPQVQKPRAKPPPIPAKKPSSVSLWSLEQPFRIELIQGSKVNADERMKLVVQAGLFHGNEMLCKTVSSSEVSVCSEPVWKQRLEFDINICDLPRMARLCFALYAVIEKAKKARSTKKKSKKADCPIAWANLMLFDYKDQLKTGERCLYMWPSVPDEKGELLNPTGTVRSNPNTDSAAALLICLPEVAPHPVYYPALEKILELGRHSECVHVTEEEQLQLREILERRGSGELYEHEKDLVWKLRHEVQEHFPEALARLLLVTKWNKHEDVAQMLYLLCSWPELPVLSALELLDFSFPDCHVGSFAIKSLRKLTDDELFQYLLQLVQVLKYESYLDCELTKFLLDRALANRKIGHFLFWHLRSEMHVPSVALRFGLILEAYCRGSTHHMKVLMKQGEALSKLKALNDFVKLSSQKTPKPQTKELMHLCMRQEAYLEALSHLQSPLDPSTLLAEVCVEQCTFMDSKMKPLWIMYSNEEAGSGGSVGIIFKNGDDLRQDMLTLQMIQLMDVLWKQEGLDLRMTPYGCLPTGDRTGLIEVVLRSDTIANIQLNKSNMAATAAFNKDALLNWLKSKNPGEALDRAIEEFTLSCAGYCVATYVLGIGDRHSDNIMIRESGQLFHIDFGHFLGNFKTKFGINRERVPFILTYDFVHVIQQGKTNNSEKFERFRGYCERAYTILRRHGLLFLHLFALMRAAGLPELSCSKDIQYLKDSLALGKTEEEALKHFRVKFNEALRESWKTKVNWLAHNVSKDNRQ
T1 sequence (P27986 whole entry partner): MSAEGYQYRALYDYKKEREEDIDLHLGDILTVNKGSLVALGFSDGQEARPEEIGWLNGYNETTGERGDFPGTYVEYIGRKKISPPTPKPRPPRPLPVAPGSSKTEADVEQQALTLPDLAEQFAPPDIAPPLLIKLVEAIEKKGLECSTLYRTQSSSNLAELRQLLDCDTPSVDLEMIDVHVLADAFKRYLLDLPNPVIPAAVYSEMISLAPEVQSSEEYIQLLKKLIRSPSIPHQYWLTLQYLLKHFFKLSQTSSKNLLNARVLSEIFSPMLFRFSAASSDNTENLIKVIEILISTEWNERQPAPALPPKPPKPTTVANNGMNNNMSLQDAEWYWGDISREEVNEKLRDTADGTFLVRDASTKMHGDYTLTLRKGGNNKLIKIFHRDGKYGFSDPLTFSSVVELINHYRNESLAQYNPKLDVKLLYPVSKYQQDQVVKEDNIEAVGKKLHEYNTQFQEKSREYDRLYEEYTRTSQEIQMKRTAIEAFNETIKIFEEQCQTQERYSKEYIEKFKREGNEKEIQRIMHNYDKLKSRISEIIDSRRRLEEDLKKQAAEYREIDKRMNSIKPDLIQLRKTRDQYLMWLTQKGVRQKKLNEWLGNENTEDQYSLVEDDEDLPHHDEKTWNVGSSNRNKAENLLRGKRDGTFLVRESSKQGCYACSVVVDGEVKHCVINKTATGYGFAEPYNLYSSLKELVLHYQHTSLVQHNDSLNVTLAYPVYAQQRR

Compound	IC50 [nM]
CC(C)(C)N1CCN(Cc2nn3c(N4CCOCC4)cc(-n4c(C(F)F)nc5ccccc54)nc3c2Cl)CC1 [Compound 4, 1-{2-[(4-Tert-butylpiperazin-1-yl)methyl]-3-chloro-7-(morpholin-4-yl)pyrazolo[1,5-a]pyrimidin-5-yl}-2-(difluoromethyl)-1H-benzimidazole]	44
CC(C)(C)N1CCN(Cc2nn3c(N4CCOCC4)cc(-n4c(C(F)F)nc5ccccc54)nc3c2Br)CC1 [Compound 5, 1-{3-Bromo-2-[(4-tert-butylpiperazin-1-yl)methyl]-7-(morpholin-4-yl)pyrazolo[1,5-a]pyrimidin-5-yl}-2-(difluoromethyl)-1H-benzimidazole]	50
FC(F)c1nc2ccccc2n1-c1cc(N2CCOCC2)n2nc(CN3CCN(Cc4ccccc4)CC3)cc2n1 [Compound 6, 1-{2-[(4-Benzylpiperazin-1-yl)methyl]-7-(morpholin-4-yl)pyrazolo[1,5-a]pyrimidin-5-yl}-2-(difluoromethyl)-1H-benzimidazole]	118
Fc1ccccc1CN1CCN(Cc2cc3nc(-n4c(C(F)F)nc5ccccc54)cc(N4CCOCC4)n3n2)CC1 [Compound 7]	640
Fc1cccc(CN2CCN(Cc3cc4nc(-n5c(C(F)F)nc6ccccc65)cc(N5CCOCC5)n4n3)CC2)c1 [Compound 8]	751
Fc1ccc(CN2CCN(Cc3cc4nc(-n5c(C(F)F)nc6ccccc65)cc(N5CCOCC5)n4n3)CC2)cc1 [Compound 9]	489
O=C(c1cc2nc(-n3c(C(F)F)nc4ccccc43)cc(N3CCOCC3)n2n1)N1CCN(Cc2ccccc2)CC1 [Compound 10, 1-[2-(4-Benzylpiperazine-1-carbonyl)-7-(morpholin-4-yl)pyrazolo[1,5-a]pyrimidin-5-yl]-2-(difluoromethyl)-1H-benzimidazole]	275
O=C(c1cc2nc(-n3c(C(F)F)nc4ccccc43)cc(N3CCOCC3)n2n1)N1CCN(Cc2ccccc2F)CC1 [Compound 11, 2-(Difluoromethyl)-1-(2-{4-[(2-fluorophenyl)methyl]piperazine-1-carbonyl}-7-(morpholin-4-yl)pyrazolo[1,5-a]pyrimidin-5-yl)-1H-benzimidazole]	212
O=C(c1cc2nc(-n3c(C(F)F)nc4ccccc43)cc(N3CCOCC3)n2n1)N1CCN(Cc2cccc(F)c2)CC1 [Compound 12, 2-(Difluoromethyl)-1-(2-{4-[(3-fluorophenyl)methyl]piperazine-1-carbonyl}-7-(morpholin-4-yl)pyrazolo[1,5-a]pyrimidin-5-yl)-1H-benzimidazole]	92
O=C(c1cc2nc(-n3c(C(F)F)nc4ccccc43)cc(N3CCOCC3)n2n1)N1CCN(Cc2ccc(F)cc2)CC1 [Compound 13, 2-(Difluoromethyl)-1-(2-{4-[(4-fluorophenyl)methyl]piperazine-1-carbonyl}-7-(morpholin-4-yl)pyrazolo[1,5-a]pyrimidin-5-yl)-1H-benzimidazole]	181
